Results as given in US20140057332A1, “GLUCO-OLIGOSACCHARIDE OXIDASES FROM ACREMONIUM STRICTUM AND USES THEREOF” (The Governing Council of the University of Toronto, priority 2011, published 2014).
Numbering of substitutions follows the chain as printed. Names may count otherwise.

B1: W351A: GOOX-VN mutant with W351A substitution (protein)
chain: NSINACLAAADVEFHEEDSEGWEMDGTAFNLRVDYDPVAIAIPRSTEDIAAAVQCGLDAGVQISAKGGGHSYGSYGFGGEDGHLMLELDRMYRVSVDDDNVATIQGGARLGYTALELLDQGNRALTHGTCPAVGIGGHVLGGGYGFATHTHGLTLDWLVGATVVLADASIVHVSKTENADLFWALRGGGGGFAIVSEFEFNTFEAPEIITTYQVTTTWNRKQHVAGLKALQDWAENTMPRELSMRLEINANALNWEGNYFGNAKDLKKVLQPIMKKAGGKSTISKLVETDWYGQINTYLYGADLNITYNYDVHEYFYANSLTAPRLSDEAISAFVDYKFDNSSVRPGRGWAIQWDFHGGKNSALASHSNDETAYAHRDQLWLWQFYDNIYDYENNTSPYPESGFEFMQGFVATIEDTLPEDRKGKYFNYADTTLDKEEAQKLYWRGNLEKLQAIKAKYDPEDVFGNVVSVEPIA
B2: Y72F: GOOX-VN mutant with Y72F substitution (protein)
chain: B1 chain with Y72F, A351W
B3: Y72A: GOOX-VN mutant with Y72A substitution (protein)
chain: B1 chain with Y72A, A351W
B4: Q384A: GOOX-VN mutant with Q384A substitution (protein)
chain: B1 chain with A351W, Q384A

Experiments:
[1] = biological target: T1, Acremonium strictum gluco-oligosaccharide oxidase GOOX-VN variant 2 Y300N, SEQ ID NO. 7 (Sarocladium strictum, UniProt D7PF15, A38V/S388N/Y300N); assay: Enzymatic assay, kinetic analysis (chromogenic H2O2 assay) of Y300N; details: 37° C., pH 8.0
T1 sequence (D7PF15 1-474 A38V/Y300N/S388N): B1 chain with Y300N, A351W
Protocol: (§1) A chromogenic assay was used to measure hydrogen peroxide production (15). Reactions contained 0.1 mM 4aminoantipyrine (4AA), 1 mM phenol, 0.5 U horseradish peroxidase, 40 mM Tris-HCl (pH 8.0), and different substrates were initiated by adding 0.2 μg of enzymes to the 250 μL reaction mixture. The production of H2O2 was coupled to the oxidation of 4aminoantipyrine by horseradish peroxidase and detected at 500 nm. Reactions were incubated at 37° C. for 15 min to measure the specific activity of GOOX on 10 mM of monosaccharide or 1 mM of oligosaccharide.
(§2) At least 12 substrate concentrations were included to obtain kinetic parameters for each substrate. Initial rates were obtained by measuring reaction products every 30 s for 15 min at 37° C. and pH 8.0, and kinetic parameters were calculated using the Michaelis-Menten equation (GraphPad Prism5 Software).

[2] = biological target: T2, Acremonium strictum gluco-oligosaccharide oxidase GOOX-VN (type strain CBS 346.70, V38 and N388), SEQ ID NO. 2 (Sarocladium strictum, UniProt D7PF15, A38V/S388N); assay: Enzymatic assay, kinetic analysis (chromogenic H2O2 assay) of GOOX-VN; details: for kcat: 37° C., pH 8.0
T2 sequence (D7PF15 1-474 A38V/S388N): B1 chain with A351W
Protocol: as §1, §2

[3] = biological target: T3, Acremonium strictum gluco-oligosaccharide oxidase GOOX-VN variant 3 W351F, SEQ ID NO. 8 (Sarocladium strictum, UniProt D7PF15, A38V/S388N/W351F); assay: Enzymatic assay, kinetic analysis (chromogenic H2O2 assay) of W351F; details: for kcat: 37° C., pH 8.0
T3 sequence (D7PF15 1-474 A38V/W351F/S388N): B1 chain with A351F
Protocol: as §1, §2

[4] = biological target: T4, Acremonium strictum gluco-oligosaccharide oxidase GOOX-VN variant 1 Y300A, SEQ ID NO. 6 (Sarocladium strictum, UniProt D7PF15, A38V/S388N/Y300A); assay: Enzymatic assay, kinetic analysis (chromogenic H2O2 assay) of Y300A; details: 37° C., pH 8.0
T4 sequence (D7PF15 1-474 A38V/Y300A/S388N): B1 chain with Y300A, A351W
Protocol: as §1, §2

[5] = Chromogenic H2O2 oxidase assay on xylotetraose; details: 1 mM xylotetraose; 37° C., 15 min
Protocol: as §1
(§3) An additional eight mutations, identified as Y72F, Y72A, E247A, E314A, W351A, N388S, Q353N, Q384A, were created in GOOX-VN to assess the influence of these residues on the substrate selectivity of GOOX-VN. […] The specific activity of each mutant was then measured at 37° C. for 15 min using 10 mM mono-sugars and 1 mM oligosaccharides as performed for Y300A, Y300N, and W351F (Table 11).

[6] = Chromogenic H2O2 oxidase assay on xylopentaose; details: 1 mM xylopentaose; 37° C., 15 min
Protocol: as §1, §3

[7] = Chromogenic H2O2 oxidase assay / kinetic analysis on cellotriose; details: 1 mM cellotriose; 37° C., 15 min
Protocol: as §1, §2

[8] = Chromogenic H2O2 oxidase assay on xylohexaose; details: 1 mM xylohexaose; 37° C., 15 min
Protocol: as §1, §3

[9] = Chromogenic H2O2 oxidase assay / kinetic analysis on cellobiose; details: 1 mM cellobiose; 37° C., 15 min
Protocol: as §1, §2

[10] = Chromogenic H2O2 oxidase assay / kinetic analysis on xylotriose; details: 1 mM xylotriose; 37° C., 15 min
Protocol: as §1, §2

[11] = Chromogenic H2O2 oxidase assay / kinetic analysis on xylobiose; details: 1 mM xylobiose; 37° C., 15 min
Protocol: as §1, §2

[12] = Chromogenic H2O2 oxidase assay / kinetic analysis on galactose; details: 10 mM galactose; 37° C., 15 min
Protocol: as §1, §2

Molecule	kcat [1]	kcat [2]	kcat [3]	kcat [4]	Specific Activity of Enzyme Variants [7]	Specific Activity of Enzyme Variants [9]	other results
OC[C@H]1OC(O)[C@H](O)[C@@H](O)[C@H]1O (some centres unmarked) [Galactose, galactose]	11.76 ± 0.0883 s⁻¹	7.152 ± 0.137 s⁻¹	6.56 ± 0.075 s⁻¹	13.3 ± 0.245 s⁻¹			change of Km versus GOOX-VN (in words) ([3]; W351F compared with GOOX-VN): decreased; change of catalytic efficiency versus GOOX-VN (in words) ([3]; W351F compared with GOOX-VN): higher catalytic efficiency
OC1OC[C@@H](O)[C@H](O)[C@H]1O (some centres unmarked) [Xylose, xylose]	9.932 ± 0.172 s⁻¹	5.248 ± 0.15 s⁻¹	4.618 ± 0.0633 s⁻¹	11.33 ± 0.137 s⁻¹			change of Km versus GOOX-VN (in words) ([3]; W351F compared with GOOX-VN): increased
OC[C@H]1OC(O)[C@H](O)[C@@H](O)[C@@H]1O (some centres unmarked) [Glucose, glucose]	10.81 ± 0.103 s⁻¹	7.485 ± 0.0917 s⁻¹	5.622 ± 0.08 s⁻¹	13.22 ± 0.24 s⁻¹			catalytic efficiency (in words) ([2]; among glucose, xylose, galactose, NAG): highest catalytic efficiency; change of Km versus GOOX-VN (in words) ([3]; W351F compared with GOOX-VN): increased
OC[C@H]1O[C@@H](O[C@H]2[C@H](O)[C@@H](O)C(O)O[C@@H]2CO)[C@H](O)[C@@H](O)[C@@H]1O (some centres unmarked) [Cellobiose, cellobiose]	11.4 ± 0.187 s⁻¹			13.72 ± 0.258 s⁻¹			
OC1OC[C@@H](O[C@@H]2OC[C@@H](O)[C@H](O)[C@H]2O)[C@H](O)[C@H]1O (some centres unmarked) [Xylobiose, xylobiose]	11.96 ± 0.125 s⁻¹			13.29 ± 0.122 s⁻¹			
OC1OC[C@@H](O[C@@H]2OC[C@@H](O[C@@H]3OC[C@@H](O)[C@H](O)[C@H]3O)[C@H](O)[C@H]2O)[C@H](O)[C@H]1O (some centres unmarked) [Xylotriose, xylotriose]	11.97 ± 0.185 s⁻¹			13.87 ± 0.11 s⁻¹			
CC(=O)N[C@H]1C(O)O[C@H](CO)[C@@H](O)[C@@H]1O (some centres unmarked) [NAG, N-acetylglucosamine]	11.34 ± 0.113 s⁻¹	8.078 ± 0.203 s⁻¹	7.785 ± 0.718 s⁻¹				
B1					1.1 µmol/min/mg	0.6 µmol/min/mg	Specific Activity of Enzyme Variants [5]: 0.3 µmol/min/mg; Specific Activity of Enzyme Variants [6]: 0.3 µmol/min/mg; Specific Activity of Enzyme Variants [8]: 0.5 µmol/min/mg; Specific Activity of Enzyme Variants [10]: 0.1 µmol/min/mg; Specific Activity of Enzyme Variants [11]: 0.1 µmol/min/mg; Specific Activity of Enzyme Variants [12]: 0.3 µmol/min/mg
B2					0.5 µmol/min/mg	0.2 µmol/min/mg	Specific Activity of Enzyme Variants [6]: 0.4 µmol/min/mg
B3					2.1 µmol/min/mg	1.1 µmol/min/mg	Specific Activity of Enzyme Variants [5]: 2.5 µmol/min/mg; Specific Activity of Enzyme Variants [6]: 3.2 µmol/min/mg; Specific Activity of Enzyme Variants [8]: 2.2 µmol/min/mg; Specific Activity of Enzyme Variants [10]: 1.3 µmol/min/mg; Specific Activity of Enzyme Variants [11]: 0.5 µmol/min/mg
B4					0.4 µmol/min/mg	0.2 µmol/min/mg	Specific Activity of Enzyme Variants [8]: 0.1 µmol/min/mg
